The source of these data is patent EP2763666B1 (priority 2011, dated 2013).

Where two headings read alike, the source gives them in different places. Where only a bound is given, the exact number is not on record here.

One data set relates to generalized demodicosis. In words: Canine generalized demodicosis: IP versus milbemycin oxime. The class given is in vivo, dogs. Conditions: fraction of cases. As to the method: Twelve dogs diagnosed with generalized demodicosis were treated, 6 with IP and 6 with milbemycin oxime. Cases diagnosed before two years of age were classified as juvenile-onset (58.3%, 7 dogs) and those diagnosed after two years of age as adult-onset (41.6%, 5 dogs). […] As previous mentioned, in six dogs cured with milbemycin oxime, the drug was used for 1-6 months (mean 2.3 months) at a dosage of 0.5-1.6 mg kg-1 body weight (mean 0.75 mg kg-1). No significant difference in dosage or treatment time was seen between juvenile and adult cases. Six dogs cured with IP were treated at the same manner indicated as reported in Example 1, and 6). In group of IP treated dogs, not differences were observed between young and adult treated animals. […] Cases with severe pododemodicosis had less chance of a cure (2/3 not cured) by using M-O protocol, but not with IP protocol (2/2 cured).
Dogs: dogs of every age, breed or sex with generalized demodicosis were used in this study. All dogs. […] Dogs developing the disease at less than two years of age were classified as juvenile-onset generalized demodicosis. Dogs that developed disease at two years of age or older were classified as adult onset generalized demodicosis. […]
Follow-up: follow-up visits were scheduled once a month for clinical evaluation and skin scrapings. The scraping sites were recorded and sampled at each subsequent examination. […]

Data set [1] deals with L. infantum infected dogs. It counts as in vivo. The settings on record: for RT-PCR on lymph node FNA: mean ± standard deviation.
The next data set relates to canine blood monocytes. It counts as in vivo, dogs. Conditions: for Macrophages activity of killing: NO production / NBT reduction; for Macrophages activity of killing / Macrophages activity of binding: mean ± standard deviation; for Macrophages activity of binding: direct count of macrophages containing yeast cells.
The subject of data set [2] is L. infantum infected dogs. It counts as in vivo. The settings on record: mean ± standard deviation.
For data set [3], the system named is L. infantum infected dogs. The class given is in vivo. Conditions: mean ± standard deviation. The source holds these as a separate data set.
For data set [4], the system named is L. infantum infected dogs. The class given is in vivo. The settings on record: for Antibody titre: mean ± standard deviation.
The test system of data set [5] is L. infantum infected dogs. It counts as in vivo. Conditions: for A/G ratio / Serum albumin / Serum γ-globulin: mean ± standard deviation.
Where [6] appears, read: T0 (beginning of therapy), baseline.

As to milbemycin oxime [M-O], the “cases with severe pododemodicosis not cured” value in the data set with generalized demodicosis is 2/3.

For Meglumine antimoniate [Control group], the “PCR results, levels of DNA copies (trend)” value in data set [1] (Figure 2B legend, after two months of treatment up to one year) was “progressive increase of parasite DNA in lymphnodes and bone-marrow”. For the same molecule, the “RT-PCR on lymph node FNA” value in data set [1] (setting [6]) turned out to be 613.228 ± 747.653 Parasites/ml; in data set [1] (T1 (2 months)) it was 287.482 ± 434.807 Parasites/ml; in data set [1] (T2 (6 months)), 210.103 ± 364.909 Parasites/ml; in data set [1] (T3 (12 months)), 340.367 ± 511.898 Parasites/ml. The “Macrophages killing activity, levels of NO production / NBT reduction (trend)” value with canine blood monocytes (Figure 4A legend) is listed as “constantly low”. The “Macrophages activity of killing” value is 1,1 ± 0,1 in the data set with canine blood monocytes (setting [6]), 1,2 ± 0,1 in the data set on canine blood monocytes (T1 (2 months)), 1,1 ± 0,1 with canine blood monocytes (T2 (6 months)) and 1,1 ± 0,1 in the data set with canine blood monocytes (T3 (12 months)). Also, the “Macrophages activity of binding” value in the data set with canine blood monocytes (setting [6]) is 31,84 ± 12,9; with canine blood monocytes (T1 (2 months)), 34,84 ± 14,2; in the data set on canine blood monocytes (T2 (6 months)), 35,42 ± 13,68; in the data set on canine blood monocytes (T3 (12 months)), 32,77 ± 12,78. The “CD3^+/CD21^+ ratio” value is 42,62 ± 21,24 in data set [2] (setting [6]), 38,13 ± 20,56 in data set [2] (T1 (2 months)), 39,85 ± 17,58 in data set [2] (T2 (6 months)) and 38,64 ± 19,54 in data set [2] (T3 (12 months)). In addition, the “CD4^+/CD8^+ ratio” value in data set [2] (setting [6]) is 1,02 ± 0,48; in data set [2] (T1 (2 months)), 1,04 ± 0,46; in data set [2] (T2 (6 months)), 1,02 ± 0,45; in data set [2] (T3 (12 months)) it was 1,31 ± 0,58. Moreover, the Clinical scores in data set [3] (setting [6]) was 4,4 ±2; in data set [3] (T1 (2 months)), 2,5 ± 1,9; in data set [3] (T2 (6 months)), 2,7 ±2; in data set [3] (T3 (12 months)) it was 2,8 ± 2,2. Besides, the “trend of antibody (Ab titre)” value in data set [4] (Figure 2A legend, after the first six months of the trial) is given as “antibody title increase”. Moreover, the Antibody titre is 908 ± 1240 in data set [4] (setting [6]), 779 ± 1031 in data set [4] (T1 (2 months)), 378 ± 321 in data set [4] (T2 (6 months)) and 493 ± 678 in data set [4] (T3 (12 months)). Also, the “electrophoresis: gamma-globulins levels in sera (trend)” value in data set [5] (Figure 2D legend) is given as “after a first period of decreasing trend, the gamma globulins trend increase”. For the same molecule, the A/G ratio is recorded as 0,48 ± 0,23 in data set [5] (setting [6]), 0,55 ± 0,23 in data set [5] (T1 (2 months)), 0,57 ± 0,23 in data set [5] (T2 (6 months)) and 0,57 ± 0,22 in data set [5] (T3 (12 months)). The Serum albumin is listed as 30,08 ± 9,63% in data set [5] (setting [6]), 34,03 ± 9,5% in data set [5] (T1 (2 months)), 35,22 ± 9,35% in data set [5] (T2 (6 months)) and 35,26 ±9,61% in data set [5] (T3 (12 months)). For the same molecule, the “Serum γ-globulin” value in data set [5] (setting [6]) is 30,67 ± 7,91%; in data set [5] (T1 (2 months)), 23,15 ± 7,46%; in data set [5] (T2 (6 months)), 21,56 ± 5,86%; in data set [5] (T3 (12 months)), 22,74 ± 7,93%.

Turning to `Cc1ccc(-c2cc(C(F)(F)F)nn2-c2ccc(S(N)(=O)=O)cc2)cc1` [Celecoxib], the “side effects: animals with chronic bleeding” value (5 control parrots treated only with anti-COX2) was “two”. Besides, the “death with acute hemorrhagic event in the proventriculus, time from initiation of therapy” value (adult female African Grey parrot) was at most 7 days. In addition, the “negativization of crop biopsies” value (histology at T1 (six months) and T2 (one year of therapy)) stood at 20%. Further, the “renal side effect leading to discontinuation” value (in vivo) was “inducing renal failure”. In addition, under “of 5 parrots, 1.5 year later”, the parrots survived was 1. Besides, the parrots died (of 5 parrots, during four months after the end of the therapy) worked out at 4.
